Laboratory results from patent US9029559B2, “Substituted 3-heteroaroylamino-propionic acid derivatives and their use as pharmaceuticals” (SANOFI, priority 2011, dated 2015).
Read-outs that look alike come from different tables or passages of the source.

Biological target: Recombinant human cathepsin A (Homo sapiens (Human), UniProt P10619)
Assay: Cathepsin A inhibitory activity (cleavage of Bodipy FL-labeled bradykinin, microfluidic capillary electrophoresis)
Assay type: biochemical
[1] = read-out: Activity (IC50, cathepsin A inhibitory activity)
[2] = read-out: Activity [μM] (IC50, cathepsin A inhibitory activity)

Recombinant human cathepsin A, sequence (P10619 29-326): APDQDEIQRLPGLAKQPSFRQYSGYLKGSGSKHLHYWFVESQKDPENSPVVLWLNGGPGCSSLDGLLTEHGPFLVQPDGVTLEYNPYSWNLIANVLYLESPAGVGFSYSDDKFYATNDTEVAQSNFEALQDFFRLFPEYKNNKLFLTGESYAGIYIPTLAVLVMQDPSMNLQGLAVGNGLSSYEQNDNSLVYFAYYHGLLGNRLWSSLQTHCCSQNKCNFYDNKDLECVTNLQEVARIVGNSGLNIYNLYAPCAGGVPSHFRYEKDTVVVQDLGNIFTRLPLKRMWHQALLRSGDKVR
Recombinant human cathepsin A, sequence (P10619 327-480): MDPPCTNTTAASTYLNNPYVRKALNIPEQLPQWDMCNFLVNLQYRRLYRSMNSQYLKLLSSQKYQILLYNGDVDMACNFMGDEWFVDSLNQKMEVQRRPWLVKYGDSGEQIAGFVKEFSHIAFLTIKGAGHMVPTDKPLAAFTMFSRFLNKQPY

Row | IC50 [1] | IC50 [2] | SMILES
1 | 3.98 µM | – | Cc1ccccc1[C@H](CC(=O)O)NC(=O)c1ccccn1 [compound 5]
2 | 10.4 µM | – | Cc1ccccc1[C@H](CC(=O)O)NC(=O)c1cccnc1 [compound 8]
3 | 7.25 µM | – | COc1cccnc1C(=O)N[C@@H](CC(=O)O)c1ccccc1C [compound 9]
4 | 1.24 µM | – | Cc1cccc(C(=O)N[C@@H](CC(=O)O)c2ccccc2C)n1 [compound 10]
5 | 7.32 µM | – | CNc1cncc(C(=O)N[C@@H](CC(=O)O)c2ccccc2C)n1 [compound 12]
6 | 10.1 µM | – | Cc1ccccc1[C@H](CC(=O)O)NC(=O)c1cc(N(C)C)nc(N(C)C)n1 [compound 13]
7 | 4.35 µM | – | Cc1ccnc(C(=O)N[C@@H](CC(=O)O)c2ccccc2C)c1 [compound 14]
8 | 2.16 µM | – | Cc1ccccc1[C@H](CC(=O)O)NC(=O)c1cncc(-c2ccccc2)c1 [compound 15]
9 | 1.05 µM | – | COc1cc(C(=O)N[C@@H](CC(=O)O)c2ccccc2C)nc(OC)n1 [compound 16, (S)-3-[(2,6-Dimethoxy-pyrimidine-4-carbonyl)-amino]-3-o-tolyl-propionic acid]
10 | 3.09 µM | – | Cc1ccccc1[C@H](CC(=O)O)NC(=O)c1ccc2cnccc2n1 [compound 17]
11 | 3.06 µM | – | CCc1ccnc(C(=O)N[C@@H](CC(=O)O)c2ccccc2C)c1 [compound 18]
12 | 4.21 µM | – | COc1cc(OC)nc(C(=O)N[C@@H](CC(=O)O)c2ccccc2C)n1 [compound 30]
13 | 4.77 µM | – | COc1cccc(C(=O)N[C@@H](CC(=O)O)c2ccccc2C)n1 [compound 31]
14 | 3.42 µM | – | Cc1ccccc1[C@H](CC(=O)O)NC(=O)c1ncccc1F [compound 33]
15 | 5.07 µM | – | Cc1ccccc1[C@H](CC(=O)O)NC(=O)c1ccc2nc[nH]c2n1 [compound 34]
16 | 1.08 µM | – | Cc1ccccc1[C@H](CC(=O)O)NC(=O)c1cc(-c2ccccc2)ccn1 [compound 39]
17 | 2.27 µM | – | COc1cccc(-c2cccc(C(=O)N[C@@H](CC(=O)O)c3ccccc3C)n2)c1 [compound 43]
18 | 1.19 µM | – | COc1ccccc1-c1cccc(C(=O)N[C@@H](CC(=O)O)c2ccccc2C)n1 [compound 44]
19 | 3.09 µM | – | COc1ccc(-c2cccc(C(=O)N[C@@H](CC(=O)O)c3ccccc3C)n2)cc1 [compound 45]
20 | 9.94 µM | – | Cc1ccccc1[C@H](CC(=O)O)NC(=O)c1ccc(Oc2ccccc2)nc1 [compound 46]
21 | 1.67 µM | – | Cc1ccccc1[C@H](CC(=O)O)NC(=O)c1cccc(F)n1 [compound 48]
22 | 7.73 µM | – | Cc1ccccc1[C@H](CC(=O)O)NC(=O)c1cc(N2CCOCC2)ccn1 [compound 50]
23 | 1.81 µM | – | Cc1cc(C)nc(C(=O)N[C@@H](CC(=O)O)c2ccccc2C)c1 [compound 51]
24 | 3.68 µM | – | Cc1ccccc1[C@H](CC(=O)O)NC(=O)c1cc(CC(C)C)nc(N)n1 [compound 52]
25 | 2.83 µM | – | Cc1ccccc1[C@H](CC(=O)O)NC(=O)c1nc(F)ccc1F [compound 53]
26 | 8.93 µM | – | Cc1ccccc1[C@H](CC(=O)O)NC(=O)c1cccc(N2CCCCC2)n1 [compound 54]

Row | IC50 [1] | IC50 [2] | SMILES
27 | 5.26 µM | – | Cc1cc(C(=O)N[C@@H](CC(=O)O)c2ccccc2C)nc(C)n1 [compound 55]
28 | 11.1 µM | – | Cc1ccccc1[C@H](CC(=O)O)NC(=O)c1cccc(-n2ccnc2)n1 [compound 56]
29 | 11.5 µM | – | COc1ccc(-c2cncc(C(=O)N[C@@H](CC(=O)O)c3ccccc3C)c2)cc1 [compound 57]
30 | 5.14 µM | – | Cc1ccccc1[C@H](CC(=O)O)NC(=O)c1cncc(-c2ccc(Cl)cc2Cl)c1 [compound 61]
31 | 4.29 µM | – | Cc1ccccc1[C@H](CC(=O)O)NC(=O)c1cncc(-c2ccccc2C(F)(F)F)c1 [compound 66]
32 | 4.97 µM | – | COc1ccccc1-c1cncc(C(=O)N[C@@H](CC(=O)O)c2ccccc2C)c1 [compound 67]
33 | 1.4 µM | – | Cc1ccccc1[C@H](CC(=O)O)NC(=O)c1cncc(-c2ccccc2F)c1 [compound 69]
34 | 3.25 µM | – | Cc1ccccc1[C@H](CC(=O)O)NC(=O)c1cncc(-c2ccc(F)cc2F)c1 [compound 73]
35 | 8.04 µM | – | Cc1ccccc1[C@H](CC(=O)O)NC(=O)c1cncc(-c2ccc3c(c2)OCO3)c1 [compound 76]
36 | 5.01 µM | – | Cc1ccccc1[C@H](CC(=O)O)NC(=O)c1cncc(-c2cccc(F)c2F)c1 [compound 79]
37 | 3.08 µM | – | Cc1cc(F)ccc1-c1cncc(C(=O)N[C@@H](CC(=O)O)c2ccccc2C)c1 [compound 82]
38 | 7.83 µM | – | COc1cc(F)ccc1-c1cncc(C(=O)N[C@@H](CC(=O)O)c2ccccc2C)c1 [compound 85]
39 | 8.51 µM | – | COc1ccc(F)c(-c2cncc(C(=O)N[C@@H](CC(=O)O)c3ccccc3C)c2)c1 [compound 88]
40 | 2.71 µM | – | Cc1ccccc1[C@H](CC(=O)O)NC(=O)c1ccnc(-c2ccccc2F)c1 [compound 97]
41 | – | 1.01 µM | Cc1ccccc1[C@H](CC(=O)O)NC(=O)c1cncc(-c2cccc(C)c2C)c1 [compound 116, (S)-3-{[5-(2,3-Dimethyl-phenyl)-pyridine-3-carbonyl]-amino}-3-o-tolyl-propionic acid]
42 | – | 5.27 µM | Cc1ccc(-c2cncc(C(=O)N[C@@H](CC(=O)O)c3ccccc3C)c2)c(C)c1 [compound 117]
43 | – | 3.7 µM | Cc1ccccc1[C@H](CC(=O)O)NC(=O)c1ccnc(-c2cccc(Cl)c2Cl)c1 [compound 123]
44 | – | 5.76 µM | Cc1ccccc1[C@H](CC(=O)O)NC(=O)c1cccc(-c2cccc(C(F)(F)F)c2)n1 [compound 133]
45 | – | 3.62 µM | Cc1ccccc1[C@H](CC(=O)O)NC(=O)c1cccc(-c2ccc(F)c(Cl)c2)n1 [compound 134]
46 | – | 1.18 µM | Cc1ccccc1[C@H](CC(=O)O)NC(=O)c1cccc(-c2ccc(F)cc2)n1 [compound 135]
47 | – | 4.85 µM | Cc1ccccc1[C@H](CC(=O)O)NC(=O)c1cccc(-c2ccc(Cl)cc2)n1 [compound 136]
48 | – | 1.24 µM | Cc1ccc(-c2cccc(C(=O)N[C@@H](CC(=O)O)c3ccccc3C)n2)cc1 [compound 137]
49 | – | 6.83 µM | Cc1ccccc1[C@H](CC(=O)O)NC(=O)c1cccc(-c2ccc(C(F)(F)F)cc2)n1 [compound 138]
50 | – | 1.09 µM | Cc1ccccc1[C@H](CC(=O)O)NC(=O)c1cccc(-c2ccccc2C(F)(F)F)n1 [compound 139]
51 | – | 1.57 µM | Cc1ccccc1[C@H](CC(=O)O)NC(=O)c1cccc(-c2cccc(Cl)c2)n1 [compound 140]
52 | – | 7.46 µM | Cc1ccccc1[C@H](CC(=O)O)NC(=O)c1cccc(-c2cccc(C#N)c2)n1 [compound 145]

Row | IC50 [1] | IC50 [2] | SMILES
53 | – | 2.16 µM | Cc1ccccc1[C@H](CC(=O)O)NC(=O)c1cccc(-c2ccc(C#N)cc2)n1 [compound 146]
54 | – | 3.16 µM | Cc1ccccc1[C@H](CC(=O)O)NC(=O)c1cccc(-c2cccc(-c3ccccc3)c2)n1 [compound 147]
55 | – | 4.4 µM | Cc1ccccc1[C@H](CC(=O)O)NC(=O)c1cccc(-c2ccc(F)cc2F)n1 [compound 149]
56 | – | 1.02 µM | Cc1ccccc1[C@H](CC(=O)O)NC(=O)c1cccc(-c2cc(F)cc(F)c2)n1 [compound 150]
57 | – | 1.18 µM | Cc1ccccc1[C@H](CC(=O)O)NC(=O)c1cccc(-c2ccc(F)c(F)c2)n1 [compound 151]
58 | – | 1.55 µM | Cc1ccccc1[C@H](CC(=O)O)NC(=O)c1cccc(-c2ccc3c(c2)OCO3)n1 [compound 152]
59 | – | 1.19 µM | Cc1ccc(-c2cccc(C(=O)N[C@@H](CC(=O)O)c3ccccc3C)n2)cc1C [compound 153]
60 | – | 2.46 µM | Cc1ccccc1[C@H](CC(=O)O)NC(=O)c1cccc(-c2ccccc2C#N)n1 [compound 157]
61 | – | 14.4 µM | Cc1ccccc1[C@H](CC(=O)O)NC(=O)c1cccc(-c2c(C)noc2C)n1 [compound 159]
62 | – | 1.43 µM | Cc1ccc(-c2cccc(C(=O)N[C@@H](CC(=O)O)c3ccccc3C)n2)c(C)c1 [compound 162]
63 | – | 6.98 µM | Cc1ccccc1[C@H](CC(=O)O)NC(=O)c1cccc(-c2cccc(OCC3CC3)c2)n1 [compound 171]
64 | – | 3.21 µM | Cc1ccccc1[C@H](CC(=O)O)NC(=O)c1cccc(-c2cccc(F)c2C)n1 [compound 172]
65 | – | 1.59 µM | Cc1ccccc1[C@H](CC(=O)O)NC(=O)c1cccc(-c2ccc(C(=O)N(C)C)c(Cl)c2)n1 [compound 174]
66 | – | 2.36 µM | Cc1cc(F)c(-c2cccc(C(=O)N[C@@H](CC(=O)O)c3ccccc3C)n2)cc1Cl [compound 175]
67 | – | 3.32 µM | Cc1ccccc1[C@H](CC(=O)O)NC(=O)c1cccc(-c2cccc(C(C)(C)O)c2)n1 [compound 176, (S)-3-({6-[3-(1-Hydroxy-1-methyl-ethyl)-phenyl]-pyridine-2-carbonyl}-amino)-3-o-tolyl-propionic acid]
68 | – | 5 µM | COc1ccc(C(=O)N[C@@H](CC(=O)O)c2ccc(C)cc2)nc1-c1cccc(C(F)(F)F)c1 [compound 181]
69 | – | 1.01 µM | COc1ccc(C(=O)N[C@@H](CC(=O)O)c2ccc(C)cc2)nc1-c1ccc(Cl)cc1Cl [compound 183]
70 | – | 1.29 µM | COc1ccc(C(=O)N[C@@H](CC(=O)O)c2ccc(C)cc2)nc1-c1ccc(F)cc1 [compound 185]
71 | – | 3.56 µM | COc1ccc(C(=O)N[C@@H](CC(=O)O)c2ccc(C)cc2)nc1-c1ccc(Cl)cc1 [compound 186, (S)-3-{[6-(4-Chloro-phenyl)-5-methoxy-pyridine-2-carbonyl]-amino}-3-p-tolyl-propionic acid]
72 | – | 4.85 µM | COc1ccc(-c2nc(C(=O)N[C@@H](CC(=O)O)c3ccc(C)cc3)ccc2OC)cc1 [compound 187]
73 | – | 4.45 µM | COc1ccc(C(=O)N[C@@H](CC(=O)O)c2ccc(C)cc2)nc1-c1ccc(C)cc1 [compound 188]
74 | – | 4.57 µM | COc1cccc(-c2nc(C(=O)N[C@@H](CC(=O)O)c3ccc(C)cc3)ccc2OC)c1 [compound 191]
75 | – | 2.74 µM | COc1ccc(C(=O)N[C@@H](CC(=O)O)c2ccc(C)cc2)nc1-c1cccc(Cl)c1 [compound 193]
76 | – | 8.83 µM | COc1ccc(C(=O)N[C@@H](CC(=O)O)c2ccc(C)cc2)nc1-c1ccc2ccccc2c1 [compound 195]
77 | – | 1.71 µM | COc1ccc(C(=O)N[C@@H](CC(=O)O)c2ccc(C)cc2)nc1-c1cccc(C)c1 [compound 197]
78 | – | 8.35 µM | COc1ccc(C(=O)N[C@@H](CC(=O)O)c2ccc(C)cc2)nc1-c1cccc(C(C)=O)c1 [compound 203]
